Laboratory results published in PubChem BioAssay AID1996.
≈ marks a conversion by molar mass, not a printed value.

conditions: buffer; pH 7.4; 200.0 µM

| SMILES | solubility kinetic [µg/mL] |
| --- | --- |
| CC1CCCC(NC(=O)CN2C(=O)NC(Cc3c[nH]c4ccccc34)C2=O)C1C (centres undefined) | > 59.5 |
| CCN1C(=O)/C(=C2\SC(N3CCOCC3)=NC2=O)c2ccccc21 | 0.9 (≈ 2.62 µM) |
| CCc1sc(C(=O)Nc2nc(-c3ccccn3)cs2)cc1C | 2.9 (≈ 8.8 µM) |
| COc1cc2c(cc1OC)C(NC(=O)C(F)(F)F)C/C2=N\O (centres undefined) | > 47.7 |
| CCN(C(=O)/C=C/c1ccccc1)C1CCCCC1 | > 38.6 |
| COc1ccccc1C1=NC(c2ccccc2)CN1c1ccccc1 (centres undefined) | 0.6 (≈ 1.83 µM) |
| CC1CCCN(C(=O)COC(=O)c2cc(Br)ccc2O)C1 (centres undefined) | 40.1 (≈ 113 µM) |
| COc1ccccc1NC(=O)C(C)OC(=O)CC1CCCC1 (centres undefined) | 29.4 (≈ 96.3 µM) |
| COc1ccc(Cl)cc1C(=O)OCC(=O)Nc1sccc1C(N)=O | 6.6 (≈ 17.9 µM) |
| Nc1ccccc1-c1nnc(SCC(=O)Nc2ccccc2OC(F)F)[nH]c1=O | > 62.9 |
| Cc1onc(-c2ccccc2)c1-c1ccc(S(N)(=O)=O)cc1 | > 47.2 |
| CCc1ccc(C(=O)NC(=S)NCc2cccnc2)cc1 | 39.9 (≈ 133 µM) |
| C=CCON1C(=O)C(=O)N(OCC=C)[C@H]2CCCC[C@H]21 | > 42 |
| COc1cccc(NC(=S)NCc2ccc(F)cc2)c1 | 37.9 (≈ 131 µM) |
| CC1=CC2=NC(=O)/C(=C/c3cccs3)C(=N)N2O1 | 2.8 (≈ 10.8 µM) |
| COc1ccc(CCNC(=O)CCc2ccccc2)cc1OC | > 47 |
| COc1ccc(CC(=O)OCC(=O)NC2CCCCC2)cc1OC | > 50.3 |
| CCOC(=O)CSCc1csc(CC(=O)Nc2ccccc2C)n1 | 52.4 (≈ 144 µM) |
| Cc1cc(C(=O)NCC(=O)Nc2c(C)cccc2C)c(C)o1 | 23.8 (≈ 79.2 µM) |
| O=Cc1c(C(=O)O)n(Cc2ccccc2Cl)c2ccccc12 | > 47.1 |
| O=C(Nc1cccc(O)c1)C1CC(c2cccc(Br)c2)=NO1 (centres undefined) | 28 (≈ 77.5 µM) |
| CCN(CC)S(=O)(=O)c1ccc(O)c(C(=O)OCC(=O)NC23CC4CC(CC(C4)C2)C3)c1 | 25.5 (≈ 54.9 µM) |
| CC(Sc1ncccn1)C(=O)NNC(=O)c1cccc(Cl)c1 (centres undefined) | > 50.5 |
| CC1CN(C2=NC(=O)/C(=C/c3ccncc3)S2)CC(C)O1 (centres undefined) | > 45.5 |

| SMILES | solubility kinetic [µg/mL] |
| --- | --- |
| O=C(COC(=O)c1ccc(Cl)cc1)NC(=O)NC1CCCC1 | 5.7 (≈ 17.6 µM) |
| COC(=O)[C@H](C)NC(=O)N1CCC(Cc2ccccc2)CC1 | > 45.7 |
| COc1ccc(C2C(C#N)=C(N)Oc3cc(O)ccc32)cc1C (centres undefined) | 31.5 (≈ 102 µM) |
| CCN(CC(=O)Nc1ccc(C)c(F)c1)CC(=O)NC(C)C | > 46.4 |
| CN1CCN(c2ccccc2NC(=O)c2c(F)cccc2F)CC1 | > 49.7 |
| CCN(Cc1ccccc1)C(=O)CS(=O)(=O)c1ccccc1 | > 47.6 |
| CCCCC(Sc1nc(C)c(Cc2ccccc2)c(=O)[nH]1)C(=O)O (centres undefined) | > 52 |
| O=C(Nc1ccc(Oc2cccc(C(F)(F)F)c2)nc1)c1cccs1 | < 0.4 |
| CN(CC(=O)Nc1ccc(F)cc1)CC(=O)N1CCCCCC1 | 44.8 (≈ 139 µM) |
| CN(C)S(=O)(=O)c1cccc(NC(=O)c2c[nH]c3ccccc23)c1 | 42.6 (≈ 124 µM) |
| NS(=O)(=O)c1ccc(CNC(=S)NC(=O)c2ccco2)cc1 | > 50.9 |
| Cl.Fc1ccc(CN2C3=NCCN3c3ccccc32)cc1 | 43.2 |
| O=C(CN1c2cccc3cccc(c23)S1(=O)=O)Nc1ccccc1Br | 4.4 (≈ 10.5 µM) |
| CC(CNC(=O)c1ccccc1Cl)c1ccccc1 (centres undefined) | 36.6 (≈ 134 µM) |
| Nc1cc(=O)[nH]c(SCc2ccc(Cl)cc2Cl)n1 | 1 (≈ 3.31 µM) |
| O=C(Cc1ncon1)Nc1ccc(F)c(F)c1F | 38.1 (≈ 148 µM) |
| N#Cc1ccc(NC(=S)NC(=O)C2CCCCC2)cc1 | 1.6 (≈ 5.57 µM) |
| O=C(Cc1ccccc1)Nc1ccc2oc(=O)ccc2c1 | 39.9 (≈ 143 µM) |
| COCC(=O)NC1CC(C)(C)Cc2c1cnn2-c1ccc(F)cc1 (centres undefined) | > 49.7 |
| C#Cc1ccc(CN2CCN(Cc3ccsc3)C(CCO)C2)cc1 (centres undefined) | 36.3 (≈ 107 µM) |
| S=C1N[C@H]2CCCC[C@@H]2N1 | 20.8 (≈ 133 µM) |
| CC(=O)Nc1c(-c2ccccc2Cl)c(=O)c2ccccc2n1C | > 49 |
| O=C(CCc1nc2ccccc2s1)Nc1cccnc1 | 32.6 (≈ 115 µM) |
| CCOC(=O)N1CCN(C(=O)/C=C/c2ccc(OC)cc2)CC1 | 36.1 (≈ 113 µM) |

| SMILES | solubility kinetic [µg/mL] |
| --- | --- |
| COC(=O)Nc1ccc(SCC(=O)c2ccccc2)cc1 | 3.4 (≈ 11.3 µM) |
| O=C(NC1CCC(c2ccccc2)CC1)c1cccnc1 (centres undefined) | 4.3 (≈ 15.3 µM) |
| CCc1ccccc1NC(=O)C1CC(c2ccc(OC)cc2)=NO1 (centres undefined) | 45.3 (≈ 140 µM) |
| CC(=O)N(C)Cc1ccc(C(=O)CSc2nnc(C3CC3)n2C2CC2)cc1 | > 57.7 |
| Cc1ccc(C(=O)N(CN2CCCC2=O)c2ccccc2)cc1 | > 46.3 |
| O=C(Nc1ccc(N2CCOCC2)nc1)c1ccccc1Cl | 42 (≈ 132 µM) |
| CCCN1C(=O)c2ccccc2NC1c1ccc(O)c(OCC)c1 (centres undefined) | > 49 |
| COc1ccc2cc3c(nc2c1)OCC3 | 25.2 (≈ 125 µM) |
| COc1ccc(C(C)=NNc2ccc([N+](=O)[O-])cc2S(=O)(=O)Nc2ccccc2C(=O)O)c(OC)c1 | > 77.2 |
| O=C(NCc1cccnc1)Nc1ccc(Cl)c(Cl)c1 | > 44.4 |
| C[C@H](NC(=O)c1ccc2c(c1)OCO2)c1nnc2ccccn12 | > 46.5 |
| Cn1c(SCC#N)nc2ccccc2c1=O | 30.2 (≈ 131 µM) |
| Nc1ncnc(Oc2cccc3cccnc23)c1[N+](=O)[O-] | 33.8 (≈ 119 µM) |
| CCC(=O)Nc1ccc(S(=O)(=O)Nc2nccs2)cc1 | 45.5 (≈ 146 µM) |
| Cn1c(N)c(C(=O)COC(=O)C2=NNC(=O)CC2)c(=O)n(C)c1=O | > 50.6 |
| Cc1cc(NC(=O)COC(=O)C2CC2)ccc1Br | > 46.8 |
| Nc1cccc2cc(-c3ccccc3)oc12 | 2.4 (≈ 11.5 µM) |
| O=c1[nH]cc(-c2ccc(Br)cc2)n1Cc1ccccc1 | 1.6 (≈ 4.86 µM) |
| O=C(O)C(NS(=O)(=O)c1cccc2nsnc12)c1ccccc1 (centres undefined) | 48.4 (≈ 139 µM) |
| COc1ccccc1NC(=S)NC1CCCCCCCCCCC1 | < 0.4 |
| O=C(Nc1ccccc1Cl)c1ccc2nccnc2c1 | > 42.6 |
| Cc1cccc(NC(=O)Cn2cc(C(=O)C3CC3)c3ccccc32)c1 | < 0.4 |
| COC(=O)c1cccc(NC(=O)CC2C(=O)NCCN2C(=O)Nc2cc(C)cc(C)c2)c1 (centres undefined) | 13.1 (≈ 29.9 µM) |
| CN1C(=O)/C(=C/c2coc3ccc(O)cc3c2=O)SC1=S | < 0.7 |

| SMILES | solubility kinetic [µg/mL] |
| --- | --- |
| COc1cccc(N=C(N)N=C(N)N)c1 | 25.6 (≈ 124 µM) |
| CCCC1Cc2nc(Cl)c(C#N)cc2CO1 (centres undefined) | > 35.5 |
| CN(C)CCNC(=O)Cc1ncc(C(F)(F)F)cc1Cl | > 46.5 |
| CCC(C(=O)Nc1cccnc1Cl)c1ccccc1 (centres undefined) | 30.2 (≈ 110 µM) |
| CCOC(=O)C1=C(c2ccc(O)cc2)NC(=O)NC1C (centres undefined) | 37 (≈ 134 µM) |
| COc1ccc(/C=C/C(=O)N2CCN(S(=O)(=O)c3ccccc3Br)CC2)cc1OC | 13.6 (≈ 27.5 µM) |
| Cc1ccc(S(=O)(=O)N2CCC(C(=O)Nc3cccnc3)CC2)cc1 | > 53.9 |
| CC(C)c1nc2sc3c(c2c(=O)[nH]1)CC(C)(C)OC3 | 6.4 (≈ 23 µM) |
| CCOC(=O)C1=C(C)N(CC(C)C)C(=O)C1 | > 33.8 |
| Cc1cccc(CNS(=O)(=O)c2csc(C(N)=O)c2)c1 | > 46.6 |
| Oc1ccccc1N1CCN(C(=S)NCc2ccccc2)CC1 | 22.4 (≈ 68.4 µM) |
| COC(=O)c1ccccc1NC(=O)CSc1nncn1C | > 46 |
| O=C(Nc1nccs1)c1cccc(NC(=O)C(F)(F)F)c1 | 38.8 (≈ 123 µM) |
| Cc1cccc(C)c1OCC(=O)Nc1cccc(C(=O)O)c1 | > 44.9 |
| Cc1ccc(C(=O)NCC(=O)NC2CCCCCC2)cc1 | 21.1 (≈ 73.2 µM) |
| O=c1[nH]c(=S)n(C2CC2)c(O)c1C=NCCc1ccccc1 | < 0.2 |
| Cc1ccc(S(=O)(=O)Nc2ccc3ccccc3n2)cc1 | 33.5 (≈ 112 µM) |
| CC1(C)CC(=O)C2=C(C1)Nc1ccccc1NC2c1cccc(F)c1 (centres undefined) | > 50.5 |
| CCN(CC)c1ccc(/C=C2\SC(=O)N(C(C)C)C2=O)o1 | 4.1 (≈ 13.3 µM) |
| CCOCCCn1c(SCC(=O)N2CCOCC2)nc2ccccc2c1=O | > 58.7 |
| CC(C)(C)C(=O)Nc1sc(-c2ccccc2)cc1C(=O)O | > 45.5 |
| COc1ccc(C2/C(=C(/O)c3ccc(F)cc3)C(=O)C(=O)N2CCCN2CCOCC2)cc1OC (centres undefined) | > 72.7 |
| CNC(=O)c1cc(S(=O)(=O)NC2CCCCCC2)ccc1C | > 48.7 |
| COC(=O)c1scc(S(=O)(=O)C(C)(C)C)c1N | 26 (≈ 93.7 µM) |

| SMILES | solubility kinetic [µg/mL] |
| --- | --- |
| Cc1cc2oc(=O)cc(CN3CCCCC3)c2cc1C | < 0.6 |
| Cn1ccnc1C(=O)c1ccc(N)cc1 | > 30.2 |
| COc1ccc(Cl)cc1NC(=O)NCCN1CCNC1=O | 43.9 (≈ 140 µM) |
| Cc1onc(-c2ccccc2Cl)c1C(O)c1ccc(F)cc1 (centres undefined) | 46.6 (≈ 147 µM) |
| O=C1OCCC1Sc1nnc(-c2ccc3c(c2)OCO3)o1 (centres undefined) | > 45.9 |
| COc1ccccc1NC(=O)COC(=O)C1CCCC1 | > 41.6 |
| CSc1ncccc1C(=O)OCC(=O)Nc1ccc(C)c(S(=O)(=O)N2CCOCC2)c1 | 21 (≈ 45.1 µM) |
| CC(C)(C)NCCOc1ccc2ccccc2c1 | 26.8 (≈ 110 µM) |
| CS(=O)(=O)N1CCCC(C(=O)Nc2cccc(F)c2)C1 (centres undefined) | > 45.1 |
| O=C(COc1ccc2ccc(=O)oc2c1)N1CCc2ccccc21 | < 0.7 |
| O=C(CNS(=O)(=O)c1cccs1)NCc1ccc(F)cc1 | > 49.3 |
| O=C(OCc1c(F)cccc1Cl)c1cccnc1Cl | 5.1 (≈ 17 µM) |
| CC(=O)Nc1ccc(-c2csc(NC(=O)CCNC(=O)c3ccco3)n2)cc1 | 11.7 (≈ 29.4 µM) |
| CCN1CCN(c2ccc(S(=O)(=O)N3CCOCC3)cc2N)CC1 | > 53.2 |
| O=c1cc(O)nc[nH]1 | > 16.8 |
| CN(C)C(CNS(=O)(=O)c1cc([N+](=O)[O-])ccc1Cl)c1ccco1.Cl (centres undefined) | 20.6 |
| O=C(NCCCCNC(=O)c1ccccn1)c1ccccn1 | > 44.8 |
| CCc1ccc(NC(=O)COC(=O)c2cccs2)cc1 | 2.8 (≈ 9.68 µM) |
| O=C(NCCc1c[nH]c2ccccc12)c1ccc(F)cc1F | > 45 |
| Cc1ccc(CNC(=O)CCCC(=O)c2ccccc2)cc1 | 7.9 (≈ 26.7 µM) |
| Cn1c(/C=C/c2cccc([N+](=O)[O-])c2)nc2ccccc2c1=O | < 0.2 |
| CC(=O)c1c(C)[nH]c(C(=O)COC(=O)c2c(C)noc2C)c1C | 5.4 (≈ 17 µM) |
| Cc1ccccc1OCC(=O)OCC(=O)NCc1ccccc1 | > 47 |
